Measured values taken from US11213512B2, “Bis-amino acid based compound and use thereof” (THE CURATORS OF THE UNIVERSITY OF MISSOURI, priority 2016, dated 2022).

Columns and labels:
[1] = tested on: Staphylcoccus aureus 1199B; assay: Checkerboard combination with norfloxacin or ethidium bromide; format: cell-based, Staphylococcus aureus; conditions: compound at ½ MIC or 2 μM; additive not stated
Protocol: Two different strains of E. coli (Gram-negative) were used. The laboratory strain of E. coli, K-12 (ATCC Accession No. 700926), was used for preliminary MIC determinations. The tetracycline resistant strain of E. coli (Tet^R) was prepared by transforming competent JM109 E. coli (Promega) with the pBR322 plasmid (Carolina Biologicals) using the manufacturers protocol. This plasmid contains two resistance genes: the tetA gene expresses the tetracycline resistance TetA efflux pump (Sapunaric and Levy, Microbiol. 2005, 151, 2315-2322) and the amp^R gene expresses a β-lactamase enzyme (Bolivar, et al; Gene 1977, 2, 95-113) that cleaves the four membered ring of penicillin derivatives. The resulting E. coli, which we designate Tet^R E. coli, is both tetracycline and ampicillin resistant. The TetA efflux pump belongs to the major facilitator superfamily (MFS), spans the cytoplasmic membrane, and transports tetracycline from the cell cytoplasm to the periplasmic space (Thanassi, et al., J. Bacteriol. 1995, 177, 998-1007). This active efflux utilizes the proton gradient as an energy source (Levy, Antimicrob. Agents Chemother. 1992, 36, 695-703). […]
Similar experiments to those described in Example 7 above were conducted, wherein the antimicrobial activity of various compounds was determined against Staphylcoccus aureus 1199B. […]

[2] = tested on: Tet^R E. coli; assay: Membrane permeability and viability, confocal microscopy (propidium iodide / fluorescein diacetate); format: cell-based, Escherichia coli; conditions: 2 at 24 μM, 10 at 6 μM (~½ MIC), 30 min
Protocol: To test the membrane permeability of the Tet^R E. coli, the bacteria was first grown overnight from one CFU in media containing 100 μg/mL Ampicillin at 37° C. and 200 RPM. Tet^R E. coli was then knocked back to O.D. 600 nm=0.550 before use. In a sterile test tube, cells were added followed by either compounds 2 or 10 at half-MIC concentrations and incubated at 37° C. and 200 RPM. The concentration of DMSO was kept constant at 0.5% —by volume in each case. After 30 minutes of incubation, the cells were washed by centrifugation at 3000×g for 5 minutes and re-suspended in sterile phosphate buffered saline (PBS). Propidium iodide (30 μM, Thermo-Fischer) and fluorescein diacetate (60 μM, Sigma-Aldrich) were added to the Tet^R E. coli cells in the PBS, mixed by vortexing and incubated at 37° C. and 200 RPM. After 30 minutes, the cells were washed again by centrifugation at 3000×g for 5 minutes. The pellet was suspended in a fresh PBS, loaded onto a clean glass slide, covered with a cover slip and observed under Zeiss LSM 700 confocal microscope.
The study was designed to assess the membrane permeability and viability of the E. coli in the presence of BTs 2 and 10. The three panels in FIG. 6 show the bright field (BF) microscopic images (top row), the result when fluorescein diacetate (FDA) is present (middle row), and the presence of propidium iodide (PI, bottom row), if any. […] When it does, it intercalates in DNA, which leads to enhanced fluorescence. Fluorescein diacetate is incorporated into the cells during growth, but is not fluorescent. If the organism is or remains vital, the diester will be hydrolyzed and fluorescein will be observed by its fluorescence emission.
Controls for the permeability/viability assay were included for E. coli in the presence of a final concentration of 0.5% (v/v) DMSO (the vehicle for administration of BTs), and a final concentration of 0.1% […] Triton X-100. […] Thus, less than or equal to 0.5% DMSO (v/v) was always used; the control is shown in the second column. Triton X-100 is a potent detergent, which was used at 0.1% or ˜1,670 μM.

[3] = Aggregate detection by dynamic light scattering; format: physicochemical; conditions: 10.(HCl)2 at concentrations between 10 μM and 1 mM
Excerpt: Amphiphiles are known to enhance the permeability of bacterial boundary layers (Lambert and Hammond, Biochem. Biophys. Res. Commun. 1973, 54, 796-799; and Hancock, Lancet 1997, 349, 418-422). Amphiphiles are also known to form aggregates in aqueous solution. An effort to detect aggregates of 10 was made by using dynamic light scattering (DLS). Compound 10 was deemed to be the most amphiphilic (bola-amphiphilic) of the structures owing to the estimated maximal spacing of the amino groups (Fuhrhop, et al., J. Am. Chem. Soc. 1993, 115, 1600-1601). Solutions of 10.(HCl)2 at concentrations between 10 μM and 1 mM were prepared and examined by dynamic light scattering methods. At the highest concentration, it appeared that some aggregates formed, but the counts were low and the results were considered inconclusive.

[4] = tested on: HEK-293 cells; assay: Mammalian cell permeability and vitality, confocal microscopy (propidium iodide / fluorescein diacetate); format: cell-based, human; conditions: 2 hours
Protocol: To test the permeability of HEK-293 cells, the cells were cultured in growth medium as described above. HEK-293 (90% confluent) were then seeded in a 96-well plate to get 30,000 cells/well. After 24 hours of incubation at 37° C. and 5% CO2, the spent media was replaced with media (DMEM and 10% FBS) containing compound 2 at either 20 μM or 80 μM. […] Triton X-100 at 0.1%—by volume (1670 μM) and DMSO 0.5% (v/v) were also used as controls. After 2 hours of incubation, spent media was replaced with PBS containing propidium iodide (30 μM) and fluorescein diacetate (60 μM) and incubated at 37° C. and 5% CO2. After 2 hour of incubation, the spend media was replaced with fresh PBS and the cells were observed under Zeiss LSM 700 confocal microscope. The images were reported without any alterations. The gain and the intensity in all the images were kept constant.
A compound that inhibits bacterial growth and penetrates into the microbe's cytosol may also penetrate into mammalian cells. A similar microscopic study was conducted with the human embryonic kidney (HEK-293) cell line. In this case, only compound 2 was studied. […] The microscopic study was therefore conducted at 20 μM, a value well below any inhibitory concentration, and at 80 μM, a concentration above all three MIC values. The 80 μM concentration was used to confirm the […] of 2 and to establish the lack of serum inhibition.

Structure (SMILES) | activity recovered (fold) [1] [fold] | viability (fluorescein diacetate fluorescence) [2] | aggregate formation in aqueous solution (DLS) [3] | cellular vitality (FDA fluorescence) ([4]; 20 μM) | cellular vitality (FDA fluorescence) ([4]; 80 μM)
Cl.Cl.N[C@H](Cc1c[nH]c2ccccc12)C(=O)NCCCCCCCCCCCCNC(=O)[C@@H](N)Cc1c[nH]c2ccccc12 [Compound 10, (S)-1-((12-((R)-2-Ammonio-3-(1H-indol-3-yl)propanamido)dodecyl)amino)-3-(1H-indol-3-yl)-1-oxopropan-2-aminium chloride] | 128 | vital | inconclusive |  | 
Cl.Cl.N[C@@H](Cc1c[nH]c2ccccc12)C(=O)Nc1cccc(NC(=O)[C@@H](N)Cc2c[nH]c3ccccc23)c1 [Compound 2, (2S,2′S)-1,1′-(1,3-Phenylenebis(azanediyl))bis(3-(1H-indol-3-yl)-1-oxopropan-2-aminium) chloride] |  | vital |  | no loss of vitality | some toxic effect was apparent
